Reference: patent US11324798B2, “Materials and methods for treatment of inflammation” (CYTOGEL PHARMA, LLC, priority 2010, dated 2022)
Several values for one entry are separate records, joined by “and”; a condition that tells them apart may be missing. Equal values may be shown once.

Tested on: CGRP release from isolated rat tracheae
Assay: Electrical field stimulation (EFS)-evoked release of CGRP from isolated rat tracheae, radioimmunoassay
Type: cell-based
Conditions: for Release of CGRP into the incubation medium / Absolute release of CGRP: individual experiments 1-5; for Release of CGRP into the incubation medium, Mean / Absolute release of CGRP, Mean: mean of 5 experiments
Description: For the in vitro release experiments, a 10 mg/ml (14.62 mM; MW 684) stock solution of CYT-1010 was made in DMSO, which was further diluted with the oxygenated Krebs solution used in the organ bath: 5.5 μl of this CYT-1010 stock solution was added into 40 ml Krebs to make the highest applied 2 μM concentration of compound CYT-1010. Further dilutions to obtain the lower concentrations were prepared with Krebs solution.
The incubation media containing the respective CYT-1010 concentrations were administered in the stimulated and post-stimulated 8-min fractions.
Since even the highest, 2 μM, concentration of CYT-1010 solution contained negligible amount of DMSO, simple Krebs solution was used in the control experiments.
Rats were exsanguinated in deep anaesthesia (sodium thiobarbital, 50 mg/kg i.p.), then the whole trachea was removed and cleaned of fat and adhering connective tissues. Tracheae from two rats were placed into the same 1.8 ml organ bath to obtain sufficient amount of released peptide and perfused (1 ml/min) with pH-(7.2) controlled oxygenized Krebs solution for 60 minutes (equilibration period) at 37° C. temperature. After discontinuation of the flow, the solution was changed three times for eight minutes to produce pre-stimulated, stimulated, post-stimulated fractions.
Electrical field stimulation (40 V, 0.1 ms, 10 Hz for 120 s; 1200 pulses) was performed to elicit neurotransmitter release at the beginning of the second 8-minute period. Stimulation with 0.1 ms pulse width selectively activates very fast Na^+ channels, which are only present in the membrane of neural structures (Birmingham and Wilson, 1963; Coburn and Tomita 1973; Szolcsányi and Barthó, 1982); therefore, it excites nerve endings without influencing other excitable cells in the tracheae such as smooth muscle cells.
Krebs solution was used in the pre-stimulated fraction for determining the basal CGRP outflow. During the stimulated and post-stimulated fractions, the incubation medium contained the examined concentrations of CYT-1010 (10, 100, 500, 1000 and 2000 nM) in separate experiments, and only one concentration was applied to the same tracheae to avoid neuropeptide depletion. In each group, 5 experiments were performed in parallel in 5 perfusion systems to provide n=5 data per group (10 tracheae per group).
60 male Wistar rats (250-300 g) altogether were divided into 6 experimental groups: Group 1: controls (n=10); Group 2: 10 nM CYT-1010 (n=10); Group 3: 100 nM CYT-1010 (n=10); Group 4: 500 nM CYT-1010 (n=10); Group 5: 1000 nM CYT-1010 (n=10); and Group 6: 2000 nM CYT-1010 (n=10). The total study was performed on three experimental days, two groups every occasion.
Calcitonin gene-related peptide (CGRP) and substance P (SP) concentrations were determined from 400-400 μl samples of organ fluid of the preparations by means of radioimmunoassay methods described in Nemeth et al., 1996, 1998, 1999, 2006; Helyes et al., 1997, 2001, 2006; Borzsei et al., 2008). Each of these publications is incorporated herein by reference in its entirety.
The released amount of the peptides CGRP and SP was calculated as fmol peptide per mg wet tissue (trachea). The absolute release in response to EFS in each experiment was calculated by adding peptide release in the second and third 8-min fractions and then taking off the basal release measured in the first (pre-stimulated) fraction. The detection limits of the RIA assays were 0.2 fmol/tube and 2 fmol/tube for CGRP and SP, respectively.

Compound: NC(Cc1ccc(O)cc1)C(=O)NC1CCCCNC(=O)C(Cc2ccccc2)NC(=O)C(Cc2c[nH]c3ccccc23)NC1=O [CYT-1010, H-Tyr-c-[D-Lys-Trp-Phe]]
- CGRP release, % increase above baseline (100 nM, during stimulation): 184.81%
- Release of CGRP into the incubation medium (100 nM, during stimulation (stimulated 8-min fraction)): 0.586 fmol/mg wet tissue and 0.281 fmol/mg wet tissue and 0.526 fmol/mg wet tissue and 0.390 fmol/mg wet tissue and 0.554 fmol/mg wet tissue
- Release of CGRP into the incubation medium, Mean (100 nM, during stimulation (stimulated fraction)): 0.468 fmol/mg wet tissue
- Absolute release of CGRP (100 nM): 0.384 fmol/mg wet tissue and 0.159 fmol/mg wet tissue and 0.538 fmol/mg wet tissue and 0.344 fmol/mg wet tissue and 0.415 fmol/mg wet tissue
- Absolute release of CGRP, Mean (100 nM): 0.368 fmol/mg wet tissue
- Inhibition of EFS-evoked absolute CGRP release (500 nM (maximal effect), 0.5 µM): 69.9% and 70%
- CGRP release, % increase above baseline (500 nM, after stimulation): 48.89%
- Release of CGRP into the incubation medium (500 nM, after stimulation (post-stimulated 8-min fraction)): 0.137 fmol/mg wet tissue and 0.206 fmol/mg wet tissue and 0.267 fmol/mg wet tissue and 0.224 fmol/mg wet tissue and 0.213 fmol/mg wet tissue
- Release of CGRP into the incubation medium, Mean (500 nM, after stimulation (post-stimulated fraction)): 0.210 fmol/mg wet tissue
- CGRP release, % increase above baseline (500 nM, before stimulation): 0.00%
- Release of CGRP into the incubation medium (500 nM, before stimulation (pre-stimulated 8-min fraction)): 0.136 fmol/mg wet tissue and 0.148 fmol/mg wet tissue and 0.146 fmol/mg wet tissue and 0.118 fmol/mg wet tissue and 0.157 fmol/mg wet tissue
- Release of CGRP into the incubation medium, Mean (500 nM, before stimulation (pre-stimulated fraction)): 0.141 fmol/mg wet tissue
- CGRP release, % increase above baseline (500 nM, during stimulation): 70.52%
- Release of CGRP into the incubation medium (500 nM, during stimulation (stimulated 8-min fraction)): 0.162 fmol/mg wet tissue and 0.301 fmol/mg wet tissue and 0.304 fmol/mg wet tissue and 0.192 fmol/mg wet tissue and 0.241 fmol/mg wet tissue
- Release of CGRP into the incubation medium, Mean (500 nM, during stimulation (stimulated fraction)): 0.240 fmol/mg wet tissue
- Absolute release of CGRP (500 nM): 0.028 fmol/mg wet tissue and 0.212 fmol/mg wet tissue and 0.279 fmol/mg wet tissue and 0.181 fmol/mg wet tissue and 0.140 fmol/mg wet tissue
- Absolute release of CGRP, Mean (500 nM): 0.168 fmol/mg wet tissue
- Inhibition of EFS-evoked absolute CGRP release (1000 nM, 1 µM): 66.3% and 66%
- Inhibition of EFS-evoked absolute CGRP release (2000 nM): 49.1%
- CGRP release, % increase above baseline (1 microM, after stimulation): 29.82%
- Release of CGRP into the incubation medium (1 microM, after stimulation (post-stimulated 8-min fraction)): 0.386 fmol/mg wet tissue and 0.162 fmol/mg wet tissue and 0.130 fmol/mg wet tissue (2×) and 0.121 fmol/mg wet tissue
- Release of CGRP into the incubation medium, Mean (1 microM, after stimulation (post-stimulated fraction)): 0.186 fmol/mg wet tissue
- CGRP release, % increase above baseline (1 microM, before stimulation): 00.0%
- Release of CGRP into the incubation medium (1 microM, before stimulation (pre-stimulated 8-min fraction)): 0.262 fmol/mg wet tissue and 0.135 fmol/mg wet tissue and 0.108 fmol/mg wet tissue (2×) and 0.102 fmol/mg wet tissue
- Release of CGRP into the incubation medium, Mean (1 microM, before stimulation (pre-stimulated fraction)): 0.143 fmol/mg wet tissue
- CGRP release, % increase above baseline (1 microM, during stimulation): 101.59%
- Release of CGRP into the incubation medium (1 microM, during stimulation (stimulated 8-min fraction)): 0.510 fmol/mg wet tissue and 0.433 fmol/mg wet tissue and 0.170 fmol/mg wet tissue (2×) and 0.161 fmol/mg wet tissue
- Release of CGRP into the incubation medium, Mean (1 microM, during stimulation (stimulated fraction)): 0.289 fmol/mg wet tissue
- Absolute release of CGRP (1 microM): 0.371 fmol/mg wet tissue and 0.325 fmol/mg wet tissue and 0.083 fmol/mg wet tissue (2×) and 0.077 fmol/mg wet tissue
- Absolute release of CGRP, Mean (1 microM): 0.188 fmol/mg wet tissue
- CGRP release, % increase above baseline (2 microM, after stimulation): −4.59%
- Release of CGRP into the incubation medium (2 microM, after stimulation (post-stimulated 8-min fraction)): 0.200 fmol/mg wet tissue and 0.161 fmol/mg wet tissue and 0.133 fmol/mg wet tissue and 0.018 fmol/mg wet tissue and 0.167 fmol/mg wet tissue
- Release of CGRP into the incubation medium, Mean (2 microM, after stimulation (post-stimulated fraction)): 0.136 fmol/mg wet tissue
- CGRP release, % increase above baseline (2 microM, before stimulation): 0.00%
- Release of CGRP into the incubation medium (2 microM, before stimulation (pre-stimulated 8-min fraction)): 0.102 fmol/mg wet tissue and 0.231 fmol/mg wet tissue and 0.097 fmol/mg wet tissue and 0.148 fmol/mg wet tissue and 0.134 fmol/mg wet tissue
- Release of CGRP into the incubation medium, Mean (2 microM, before stimulation (pre-stimulated fraction)): 0.142 fmol/mg wet tissue
- CGRP release, % increase above baseline (2 microM, during stimulation): 204.09%
- Release of CGRP into the incubation medium (2 microM, during stimulation (stimulated 8-min fraction)): 0.198 fmol/mg wet tissue and 0.584 fmol/mg wet tissue and 0.388 fmol/mg wet tissue and 0.645 fmol/mg wet tissue and 0.353 fmol/mg wet tissue
- Release of CGRP into the incubation medium, Mean (2 microM, during stimulation (stimulated fraction)): 0.433 fmol/mg wet tissue
- Absolute release of CGRP (2 microM): 0.192 fmol/mg wet tissue and 0.284 fmol/mg wet tissue and 0.326 fmol/mg wet tissue and 0.366 fmol/mg wet tissue and 0.253 fmol/mg wet tissue
- Absolute release of CGRP, Mean (2 microM): 0.284 fmol/mg wet tissue
- Effect on stimulation-evoked CGRP release (10-2000 nM added to the second and third fractions): significantly inhibited
- Effect on CGRP release in the third, post-stimulated fraction (100 and 500 nM): significantly inhibited
- EC50 (sigmoidal concentration-response curve, non-linear least square fit, 10-2000 nM, read-out: EC50 for inhibition of electrically-evoked CGRP release): 40.6 nM
- Effect on CGRP release in the third, post-stimulated fraction (two highest concentrations (1000 and 2000 nM)): abolished
